Assay results taken from patent publication US10125118B2, “Heteroaryl compounds and their use as therapeutic drugs” (Dong-A Socio Holdings Co., Ltd., priority 2015, dated 2018).

target: human c-MER catalytic domain (Homo sapiens (Human), UniProt Q12866); experiment: LanthaScreen TR-FRET kinase assay, c-MER; details: read-out: Mer TK inhibition (IC50); Biochemical IC50, TR-FRET, 10 uM ATP
Sequence (Q12866 587-858): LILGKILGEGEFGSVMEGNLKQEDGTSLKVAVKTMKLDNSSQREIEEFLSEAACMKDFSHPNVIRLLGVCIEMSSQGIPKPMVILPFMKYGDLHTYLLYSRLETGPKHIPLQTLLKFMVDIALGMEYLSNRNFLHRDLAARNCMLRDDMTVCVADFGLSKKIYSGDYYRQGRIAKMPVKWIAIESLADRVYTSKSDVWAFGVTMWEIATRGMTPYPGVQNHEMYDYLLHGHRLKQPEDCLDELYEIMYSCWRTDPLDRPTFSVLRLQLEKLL

Structure (SMILES) | IC50
Cc1ccc(CNc2ncc(-c3cnn(C)c3)cc2C(=O)N[C@H]2CCC[C@@H]2OCc2ccccc2)cc1C [Example 72, N-((1S,2S)-2-(benzyloxy)cyclopentyl)-2-((3,4-dimethylbenzyl-)amino)-5-(1-methyl-1H-pyrazol-4-yl)nicotinamide] | > 1000 nM
Cn1cc(-c2cnc(N)c(C(=O)N[C@H]3CCC4(OCCO4)[C@@H]3OCc3ccccc3)c2)cn1 [Example 73, 2-amino-N-((6R,7S)-6-(benzyloxy)-1,4-dioxaspiro[4.4]nonan-7-yl)-5-(1-methyl-1H-pyrazol-4-yl)nicotinamide] | > 1000 nM
Cn1cc(-c2cnc(N)c(C(=O)N[C@H]3CCC[C@@H]3COc3cccc(C(=O)N4CCCCC4)c3)c2)cn1 [Example 83, 2-amino-5-(1-methyl-1H-pyrazol-4-yl)-N-((1S,2S)-2-((3-(piperidine-1-carbonyl)phenoxy)methyl)cyclopentyl)nicotinamide] | > 1000 nM
C[C@H](CNC(=O)c1cc(-c2cnn(C)c2)cnc1N)OCc1ccccc1 [Example 95, (R)-2-amino-N-(2-(benzyloxy)propyl)-5-(1-methyl-1H-pyrazol-4-yl)nicotinamide] | > 1000 nM
C[C@@H](CNC(=O)c1cc(-c2cnn(C)c2)cnc1N)OCc1ccccc1 [Example 96, (S)-2-amino-N-(2-(benzyloxy)propyl)-5-(1-methyl-1H-pyrazol-4-yl)nicotinamide] | > 1000 nM
C[C@@H](COCc1ccccc1)NC(=O)c1cc(-c2cnn(C)c2)cnc1N [Example 97, (S)-2-amino-N-(1-(benzyloxy)propan-2-yl)-5-(1-methyl-1H-pyrazol-4-yl)nicotinamide] | > 1000 nM
C[C@H](COCc1ccccc1)NC(=O)c1cc(-c2cnn(C)c2)cnc1N [Example 98, (R)-2-amino-N-(1-(benzyloxy)propan-2-yl)-5-(1-methyl-1H-pyrazol-4-yl)nicotinamide] | > 1000 nM
Cn1cc(-c2cnc(N)c(C(=O)NC(C)(C)COCc3ccccc3)c2)cn1 [Example 99, 2-amino-N-(1-(benzyloxy)-2-methylpropan-2-yl)-5-(1-methyl-1H-pyrazol-4-yl)nicotinamide] | > 1000 nM
Cc1ccc(COC[C@@H](C)NC(=O)c2cc(-c3cnn(C)c3)cnc2N)cc1C [Example 100, (R)-2-amino-N-(1-((3,4-dimethylbenzyl)oxy)propan-2-yl)-5-(1-methyl-1H-pyrazol-4-yl)nicotinamide] | > 1000 nM
C[C@H](COCc1ccc(Cl)cc1)NC(=O)c1cc(-c2cnn(C)c2)cnc1N [Example 102, (R)-2-amino-N-(1-((4-chlorobenzyl)oxy)propan-2-yl)-5-(1-methyl-1H-pyrazol-4-yl)nicotinamide] | > 1000 nM
C[C@@H](CNC(=O)c1cc(-c2cnn(C)c2)cnc1N)OCc1ccc(Cl)cc1 [Example 103, (S)-2-amino-N-(2-((4-chlorobenzyl)oxy)propyl)-5-(1-methyl-1H-pyrazol-4-yl)nicotinamide] | > 1000 nM
C[C@H](COCc1ccc(Cl)c(Cl)c1)NC(=O)c1cc(-c2cnn(C)c2)cnc1N [Example 104, (R)-2-amino-N-(1-((3,4-dichlorobenzyl)oxy)propan-2-yl)-5-(1-methyl-1H-pyrazol-4-yl)nicotinamide] | > 1000 nM
COc1cccc(COC[C@@H](C)NC(=O)c2cc(-c3cnn(C)c3)cnc2N)c1 [Example 106, (R)-2-amino-N-(1-((3-methoxybenzyl)oxy)propan-2-yl)-5-(1-methyl-1H-pyrazol-4-yl)nicotinamide] | > 1000 nM
COc1cccc(CO[C@@H](C)CNC(=O)c2cc(-c3cnn(C)c3)cnc2N)c1 [Example 107, (S)-2-amino-N-(2-((3-methoxybenzyl)oxy)propyl)-5-(1-methyl-1H-pyrazol-4-yl)nicotinamide] | > 1000 nM
CC[C@H](COCc1ccccc1)NC(=O)c1cc(-c2cnn(C)c2)cnc1N [Example 108, (R)-2-amino-N-(1-(benzyloxy)butan-2-yl)-5-(1-methyl-1H-pyrazol-4-yl)nicotinamide] | > 1000 nM
CC(C)[C@@H](COCc1ccccc1)NC(=O)c1cc(-c2cnn(C)c2)cnc1N [Example 109, (S)-2-amino-N-(1-(benzyloxy)-3-methylbutan-2-yl)-5-(1-methyl-1H-pyrazol-4-yl)nicotinamide] | > 1000 nM
CC(C)[C@H](COCc1ccccc1)NC(=O)c1cc(-c2cnn(C)c2)cnc1N [Example 110, (R)-2-amino-N-(1-(benzyloxy)-3-methylbutan-2-yl)-5-(1-methyl-1H-pyrazol-4-yl)nicotinamide] | > 1000 nM
CC(C)C[C@@H](COCc1ccccc1)NC(=O)c1cc(-c2cnn(C)c2)cnc1N [Example 111, (S)-2-amino-N-(1-(benzyloxy)-4-methylpentan-2-yl)-5-(1-methyl-1H-pyrazol-4-yl)nicotinamide] | > 1000 nM
CC(C)C[C@H](COCc1ccccc1)NC(=O)c1cc(-c2cnn(C)c2)cnc1N [Example 112, (R)-2-amino-N-(1-(benzyloxy)-4-methylpentan-2-yl)-5-(1-methyl-1H-pyrazol-4-yl)nicotinamide] | > 1000 nM
Cn1cc(-c2cnc(N)c(C(=O)N[C@@H](COCc3ccccc3)C3CCCCC3)c2)cn1 [Example 113, (R)-2-amino-N-(2-(benzyloxy)-1-cyclohexylethyl)-5-(1-methyl-1H-pyrazol-4-yl)nicotinamide] | > 1000 nM
Cn1cc(-c2cnc(N)c(C(=O)N[C@@H](CO)C3CCCCC3)c2)cn1 [Example 114, (R)-2-amino-N-(1-cyclohexyl-2-hydroxyethyl)-5-(1-methyl-1H-pyrazol-4-yl)nicotinamide] | > 1000 nM
Cn1cc(-c2cnc(N)c(C(=O)N[C@H](COCc3ccccc3)c3ccccc3)c2)cn1 [Example 115, (S)-2-amino-N-(2-(benzyloxy)-1-phenylethyl)-5-(1-methyl-1H-pyrazol-4-yl)nicotinamide] | > 1000 nM
Cn1cc(-c2cnc(N)c(C(=O)N[C@@H](COCc3ccccc3)c3ccccc3)c2)cn1 [Example 116, (R)-2-amino-N-(2-(benzyloxy)-1-phenylethyl)-5-(1-methyl-1H-pyrazol-4-yl)nicotinamide] | > 1000 nM
Cn1cc(-c2cnc(N)c(C(=O)N[C@H](COCc3ccccc3)Cc3ccccc3)c2)cn1 [Example 117, (S)-2-amino-N-(1-(benzyloxy)-3-phenylpropan-2-yl)-5-(1-methyl-1H-pyrazol-4-yl)nicotinamide] | > 1000 nM
Cn1cc(-c2cnc(N)c(C(=O)N[C@@H](COCc3ccccc3)Cc3ccccc3)c2)cn1 [Example 118, (R)-2-amino-N-(1-(benzyloxy)-3-phenylpropan-2-yl)-5-(1-methyl-1H-pyrazol-4-yl)nicotinamide] | > 1000 nM
C[C@H](COCC1CCC1)NC(=O)c1cc(-c2cnn(C)c2)cnc1N [Example 119, (R)-2-amino-N-(1-(cyclobutylmethoxy)propan-2-yl)-5-(1-methyl-1H-pyrazol-4-yl)nicotinamide] | > 1000 nM
COC(=O)[C@H](COCc1ccccc1)NC(=O)c1cc(-c2cnn(C)c2)cnc1N [Example 120, methyl N-(2-amino-5-(1-methyl-1H-pyrazol-4-yl)nicotinoyl)-O-benzyl-L-serinate] | > 1000 nM
COC(=O)[C@@H](NC(=O)c1cc(-c2cnn(C)c2)cnc1N)[C@@H](C)OCc1ccccc1 [Example 121, methyl N-(2-amino-5-(1-methyl-1H-pyrazol-4-yl)nicotinoyl)-O-benzyl-L-threoninate] | > 1000 nM
